Source: ChEMBL document CHEMBL5584201, “Amphiphilic tribasic galactosamines potentiate rifampicin in Gram-negative bacteria at low Mg++/Ca++concentrations” (Bioorg Med Chem Lett, 2024)

Tests used:
Assay type in all cases: functional
Pseudomonas aeruginosa [1] = test: Antibacterial activity against Pseudomonas aeruginosa PAO1 in low salt containing media by Mueller-Hinton broth based assay
Acinetobacter baumannii [2] = test: Antibacterial activity against Acinetobacter baumannii ATCC 17978 in low salt containing media by Mueller-Hinton broth based assay
Escherichia coli [3] = test: Antibacterial activity against Escherichia coli ATCC 25922 in low salt containing media by Mueller-Hinton broth based assay
Pseudomonas aeruginosa [4] = test: Potentiation of rifampicin-induced antibacterial activity against Pseudomonas aeruginosa PAO1 assessed as rifampicin MIC in low salt containing media by Mueller-Hinton broth based assay
Acinetobacter baumannii [5] = test: Potentiation of rifampicin-induced antibacterial activity against Acinetobacter baumannii ATCC 17978 assessed as rifampicin MIC in low salt containing media by Mueller-Hinton broth based assay
Escherichia coli [6] = test: Potentiation of rifampicin-induced antibacterial activity against Escherichia coli ATCC 25922 assessed as rifampicin MIC in low salt containing media by Mueller-Hinton broth based assay
Pseudomonas aeruginosa [7] = test: Potentiation of rifampicin-induced antibacterial activity against Pseudomonas aeruginosa PAO1 assessed as fold change in rifampicin MIC in low salt containing media by Mueller-Hinton broth based assay
Acinetobacter baumannii [8] = test: Potentiation of rifampicin-induced antibacterial activity against Acinetobacter baumannii ATCC 17978 assessed as fold change in rifampicin MIC in low salt containing media by Mueller-Hinton broth based assay
Escherichia coli [9] = test: Potentiation of rifampicin-induced antibacterial activity against Escherichia coli ATCC 25922 assessed as fold change in rifampicin MIC in low salt containing media by Mueller-Hinton broth based assay

| MIC (Pseudomonas aeruginosa [1]) | MIC (Acinetobacter baumannii [2]) | MIC (Escherichia coli [3]) | MIC (Pseudomonas aeruginosa [4]) | MIC (Acinetobacter baumannii [5]) | MIC (Escherichia coli [6]) | SMILES | fold change (FC) (Pseudomonas aeruginosa [7]) | fold change (FC) (Acinetobacter baumannii [8]) | fold change (FC) (Escherichia coli [9]) |
| --- | --- | --- | --- | --- | --- | --- | --- | --- | --- |
| > 128 µg/mL | 128 µg/mL | 64 µg/mL | 16 µg/mL | 16 µg/mL | 16 µg/mL | NC[C@H]1O[C@@H](OCCCc2ccccc2)[C@H](N)[C@@H](OCc2ccc3ccccc3c2)[C@H]1N | 2 | 32 | 32 |
| > 128 µg/mL | 128 µg/mL | 64 µg/mL | 8 µg/mL | 8 µg/mL | 8 µg/mL | CCCCCCCCO[C@@H]1O[C@H](CN)[C@H](N)[C@H](OCc2ccc3cccnc3c2)[C@H]1N | 2 | 64 | 32 |
| > 128 µg/mL | 32 µg/mL | 32 µg/mL | 16 µg/mL | 8 µg/mL | 8 µg/mL | CCCCCCCCO[C@@H]1O[C@H](CO)[C@H](N)[C@H](OCc2ccc3ccccc3c2)[C@H]1N | 1 | 2 | 2 |
| 8 µg/mL | 4 µg/mL | 4 µg/mL | 2 µg/mL | 1 µg/mL | 0.5 µg/mL | CCCCCCCCCCCCO[C@@H]1O[C@H](CN)[C@H](N)[C@H](OCc2ccc3ccccc3c2)[C@H]1N | 1 | 8 | 1 |
| 32 µg/mL | 16 µg/mL | 8 µg/mL | 8 µg/mL | 4 µg/mL | 1 µg/mL | CCCCCCCCO[C@H]1[C@@H](N)[C@@H](CN=[N+]=[N-])O[C@@H](OCc2ccc3ccccc3c2)[C@@H]1N | 2 | 128 | 8 |
